Test results taken from patent US10221427B2 (priority 2014, dated 2019).

Key:
Arabidopsis root hair = assay: Root hair assay (apoptosis-like programmed cell death); type: cell-based, Arabidopsis thaliana; settings: 65 μM SA, one day post treatment
Experimental: The root hair assay was conducted as previously described (Kacprzyk et al. 2014). Briefly, five days old seedling were treated with 65 μM SA solution and incubated at 22° C. in constant light until scoring. The Apostosis-Like Program Cell Death (AL-PCD) was assessed by scoring root hair viability with a fluorescein diacetate (FDA) staining and examination under the microscope of the emission of the fluorescein when excited at the wavelength 485 nm. Root hairs negative for FDA staining were examined further and scored as programmed cell death (PCD) when having a condensed cell content and protoplast retracted away from the cell wall (as opposed to necrotic cells which have no retracted cytoplasm and therefore no distinguishable morphology compared to living cells under the light microscope). The percentage for each category was calculated as a percentage of the total number of root hair scored (about 100) averaged over at least three replicates.

ENST1 (TaENST1-4A) = system: ENST1 (TaENST1-4A); design: species or system wheat cv. CM82036; settings: in vivo

SMILES | programmed cell death (PCD) in root hairs after SA treatment (Arabidopsis root hair) | ENST1 expression in tissues treated with the toxin (ENST1 (TaENST1-4A)) | ENST1 induction by DON (ENST1 (TaENST1-4A))
O=C(O)c1ccccc1O [SA, salicylic acid] | significant inductions of PCD | – | –
CC1=C[C@H]2O[C@@H]3[C@H](O)C[C@](C)([C@@]2(CO)[C@H](O)C1=O)[C@]31CO1 [DON, deoxynivalenol] | – | high expression | 43 fold
